molecular target: T1, LH-RH receptors (Rattus norvegicus, UniProt P30969); test: Affinity for LH-RH receptors: [125I]-buserelin binding to rat pituitary membranes; conditions: 2 hours at 4° C., 20 to 70 μM [125I]-buserelin, Ki from IC50 by Cheng-Prusoff, read-out: pKi (affinity for LH-RH receptors) (converted)
T1 construct: from tissue; host or cells: rat pituitary membrane fraction (female Sprague Dawley)
T1 sequence (P30969 1-327): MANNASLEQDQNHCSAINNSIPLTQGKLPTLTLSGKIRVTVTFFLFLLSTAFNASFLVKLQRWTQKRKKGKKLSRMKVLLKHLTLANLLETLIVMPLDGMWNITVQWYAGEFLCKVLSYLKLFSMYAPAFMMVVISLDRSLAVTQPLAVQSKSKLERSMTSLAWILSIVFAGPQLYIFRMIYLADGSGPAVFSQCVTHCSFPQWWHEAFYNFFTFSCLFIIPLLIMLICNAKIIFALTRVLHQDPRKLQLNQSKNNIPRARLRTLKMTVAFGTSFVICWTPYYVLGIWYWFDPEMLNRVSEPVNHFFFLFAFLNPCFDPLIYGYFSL
Method: This affinity has been determined according to the following method:
Pituitaries from female Sprague Dawley rats were removed and homogenized with a Potter homogenizer in a 25 mM HEPES buffer (pH 7.4) containing 0.32 M sucrose, 100 μg/l PMSF (phenylmethylsulfonylfluoride), 5.6 U/l aprotinin and 10,000 U/l bacitracin. The homogenates were centrifuged at 700 g for 10 minutes and the supernatants were further centrifuged at 12,500 g for 30 minutes. The pellets were homogenized and centrifuged as described above, in the same buffer but without sucrose.
All homogenization, centrifugation and subsequent incubation steps were carried out at 4° C.
The assay was terminated by filtration under suction (Brandel 96-well harvester) through Whatman GF/B glass fiber filters. […] Each compound was tested in at least 4 experiments.
Specific binding data were analysed according to Scatchard's method.
For each test compound, the inhibitory constant (Ki) was calculated from its IC50 according to the Cheng and Prussofs equation: Ki=IC50 /(1+[radioligand]/Kd). Ki was then transformed into pKi (=-log Ki) for final expression of affinity scales.

| SMILES | Ki [nM] |
| --- | --- |
| CC(=O)N[C@H](Cc1ccc2ccccc2c1)C(=O)N[C@H](Cc1ccc(Cl)cc1)C(=O)N[C@H](Cc1csc2ccccc12)C(=O)N[C@@H](CO)C(=O)N[C@@H](Cc1ccc(O)cc1)C(=O)N1CCC[C@@]12CCN([C@@H](CC(C)C)C(=O)N[C@@H](CCCNC(=N)N)C(=O)N1CCC[C@H]1C(=O)N[C@H](C)C(N)=O)C2=O [Example 24, AcDNal-DpClPhe-DBal-Ser-Tyr-SPL-Leu-Arg-Pr-DAlaNH2] | 0.251 |
| CC(=O)N[C@H](Cc1ccc2ccccc2c1)C(=O)N[C@H](Cc1ccc(Cl)cc1)C(=O)N[C@H](Cc1cccnc1)C(=O)N[C@@H](CO)C(=O)N[C@@H](CCCCNC(=O)c1cccnc1)C(=O)N1CCC[C@@]12CCN([C@@H](CC(C)(C)C)C(=O)N[C@@H](CCCCNC(C)C)C(=O)N1CCC[C@H]1C(=O)N[C@H](C)C(N)=O)C2=O [Example 29, AcDNal-DpClPhe-DPal-Ser-NicLys-SPL-Npg-IprLys-Pro-DAlaNH2] | 0.363 |
| CC(=O)N[C@H](Cc1ccc2ccccc2c1)C(=O)N[C@H](Cc1ccc(Cl)cc1)C(=O)N[C@H](Cc1c[nH]c2ccccc12)C(=O)N[C@@H](CO)C(=O)N[C@@H](Cc1ccc(O)cc1)C(=O)N1CCC[C@@]12CCN([C@@H](CC(C)C)C(=O)N[C@@H](CCCNC(=N)N)C(=O)N1CCC[C@H]1C(=O)N[C@H](C)C(N)=O)C2=O [Example 22, AcDNal-DpClPhe-DTrp-Ser-Tyr-SPL-Leu-Arg-Prx)-DAlaNH2] | 0.891 |
| CC(=O)N[C@H](Cc1ccc2ccccc2c1)C(=O)N[C@H](Cc1ccc(Cl)cc1)C(=O)N[C@H](Cc1cccnc1)C(=O)N[C@@H](CO)C(=O)N[C@@H](CCCCNC(C)C)C(=O)N1CCC[C@@]12CCN([C@@H](CC(C)(C)C)C(=O)N[C@@H](CCCNC(=N)N)C(=O)N1CCC[C@H]1C(=O)N[C@H](C)C(N)=O)C2=O [Example 27, AcDNal-DpCtPhe-DPal-Ser-IprLys-SPL-Npg-Arg-Pro-DAlaNH2] | 0.0977 |
| CC(=O)N[C@H](Cc1ccc2ccccc2c1)C(=O)N[C@H](Cc1ccc(Cl)cc1)C(=O)N[C@H](Cc1cccnc1)C(=O)N[C@@H](CO)C(=O)N[C@@H](Cc1ccc(O)cc1)C(=O)N1CCC[C@@]12CCN([C@@H](CC(C)(C)C)C(=O)N[C@@H](CCCNC(=N)N)C(=O)N1CCC[C@H]1C(=O)N[C@H](C)C(N)=O)C2=O [Example 25, AcDNal-DpClPhe-DPal-Ser-Tyr-SPL-Npg-Arg-Pro-DAlaNH2] | 0.245 |
| CC(=O)N[C@H](Cc1ccc2ccccc2c1)C(=O)N[C@H](Cc1ccc(Cl)cc1)C(=O)N[C@H](Cc1cccnc1)C(=O)N[C@@H](CO)C(=O)N[C@@H](Cc1ccc(O)cc1)C(=O)N1CCC[C@@]12CCN([C@@H](CC(C)(C)C)C(=O)N[C@@H](CCCCNC(C)C)C(=O)N1CCC[C@H]1C(=O)N[C@H](C)C(N)=O)C2=O [Example 28, AcDNal-DpCtPhe-DPal-Ser-Tyr-SPL-Npg-IprLys-Pro-DAlaNH2] | 0.309 |
| CC(=O)N[C@H](Cc1ccc2ccccc2c1)C(=O)N[C@H](Cc1ccc(Cl)cc1)C(=O)N[C@H](Cc1cccnc1)C(=O)N[C@@H](CO)C(=O)N[C@@H](Cc1ccc(O)cc1)C(=O)N1CCC[C@@]12CCN([C@@H](CC(C)C)C(=O)N[C@@H](CCCNC(=N)N)C(=O)N1CCC[C@H]1C(=O)N[C@H](C)C(N)=O)C2=O [Example 23, AcDNal-DpClPhe-DPal-Ser-Tyr-SPL-Leu-Arg-Pro-DAlaNH2] | 0.155 |
| CC(=O)N[C@H](Cc1ccc2ccccc2c1)C(=O)N[C@H](Cc1ccc(Cl)cc1)C(=O)N[C@H](Cc1cccnc1)C(=O)N[C@@H](CO)C(=O)N[C@@H](CCCCNC(=O)c1cccnc1)C(=O)N1CCC[C@@]12CCN([C@@H](CC(C)(C)C)C(=O)N[C@@H](CCCNC(=N)N)C(=O)N1CCC[C@H]1C(=O)N[C@H](C)C(N)=O)C2=O [Example 26, AcDNal-DpClPhe-DPal-Ser-NicLys-SPL-Npg-Arg-Pro-DAlaNH2] | 0.263 |
| CCNC(=O)[C@@H]1CCCN1C(=O)[C@H](CCCNC(=N)N)NC(=O)[C@H](CC(C)C)N1CC[C@@]2(CCCN2C(=O)[C@H](Cc2ccc(O)cc2)NC(=O)[C@H](CO)NC(=O)[C@H](Cc2ccc3ccccc3c2)NC(=O)[C@H](Cc2c[nH]cn2)NC(=O)CN(C)C(C)=O)C1=O [Example 13, AcSar-His-Nal-Ser-Tyr-SPL-Leu-Arg-Pro-NEt] | 1.05 |

More lines, now with the values ahead:

| Ki [nM] | SMILES |
| --- | --- |
| 1.78 | CCNC(=O)[C@@H]1CCCN1C(=O)[C@H](CCCNC(=N)N)NC(=O)[C@@H](N1CC[C@@]2(CCCN2C(=O)[C@H](Cc2ccc(O)cc2)NC(=O)[C@H](CO)NC(=O)[C@H](Cc2c[nH]c3ccccc23)NC(=O)[C@H](Cc2c[nH]cn2)NC(=O)[C@@H]2CCC(=O)N2)C1=O)C(C)(C)C [Example 17, pGlu-His-Trp-Ser-Tyr-SPL-Tle-Arg-Pro-NEt] |
| 2.29 | CCNC(=O)[C@@H]1CCCN1C(=O)[C@H](CCCNC(=N)N)NC(=O)[C@H](CCC(C)C)N1CC[C@@]2(CCCN2C(=O)[C@H](Cc2ccc(O)cc2)NC(=O)[C@H](CO)NC(=O)[C@H](Cc2c[nH]c3ccccc23)NC(=O)[C@H](Cc2c[nH]cn2)NC(=O)[C@@H]2CCC(=O)N2)C1=O [Example 15, pGlu-His-Trp-Ser-Tyr-SPL-Hol-Arg-Pro-NEt] |
| 0.105 | CCNC(=O)[C@@H]1CCCN1C(=O)[C@H](CCCNC(=N)N)NC(=O)[C@H](CC(C)C)N1CC[C@@]2(CCCN2C(=O)[C@H](Cc2ccc(O)cc2)NC(=O)[C@H](CO)NC(=O)[C@H](Cc2ccc3ccccc3c2)NC(=O)[C@H](Cc2c[nH]cn2)NC(=O)[C@@H]2CCC(=O)N2)C1=O [Example 12, pGlu-His-Nal-Ser-Tyr-SPL-Leu-Arg-Pro-NEt] |
| 6.17 | CCNC(=O)[C@@H]1CCCN1C(=O)[C@H](CCCNC(=N)N)NC(=O)[C@H](CC(C)C)N1CC[C@@]2(CCCN2C(=O)[C@H](Cc2ccc(O)cc2)NC(=O)[C@H](CO)NC(=O)[C@H](Cc2c[nH]c3ccccc23)NC(=O)[C@H](Cc2c[nH]cn2)NC(=O)CN(C)C(C)=O)C1=O [Example 10, AcSar-His-Trp-Ser-Tyr-SPL-Leu-Arg-Pro-NEt] |
| 1.15 | CCNC(=O)[C@@H]1CCCN1C(=O)[C@H](CCCNC(=N)N)NC(=O)[C@H](CC(C)C)N1CC[C@@]2(CCCN2C(=O)[C@H](Cc2ccc(O)cc2)NC(=O)[C@H](CO)NC(=O)[C@H](Cc2c[nH]c3ccccc23)NC(=O)[C@H](Cc2c[nH]cn2)NC(=O)[C@@H]2CCC(=O)N2)C1=O [Example 9, pGlu-His-Trp-Ser-Tyr-SPL-Leu-Arg-Pro-NEt] |
| 9.77 | CC(C)C[C@@H](C(=O)N[C@@H](CCCNC(=N)N)C(=O)N1CCC[C@H]1C(=O)N[C@H](C)C(N)=O)N1CC[C@@]2(CCCN2C(=O)[C@H](Cc2ccc(O)cc2)NC(=O)[C@H](CO)NC(=O)[C@H](Cc2c[nH]c3ccccc23)NC(=O)[C@@H](Cc2ccccc2)NC(=O)[C@@H]2CCC(=O)N2)C1=O [Example 21, pGlu-DPhe-Trp-Ser-Tyr-SPL-Leu-Arg-Pro-DAlaNH2] |
| 4.07 | CC(C)C[C@@H](C(=O)N[C@@H](CCCNC(=N)N)C(=O)N1CCC[C@H]1C(=O)NCC(N)=O)N1CC[C@@]2(CCCN2C(=O)[C@H](Cc2ccc(O)cc2)NC(=O)[C@H](CO)NC(=O)[C@H](Cc2c[nH]c3ccccc23)NC(=O)[C@@H](Cc2ccccc2)NC(=O)[C@@H]2CCC(=O)N2)C1=O [Example 20, pGlu-DPhe-Trp-Ser-Tyr-SPL-Leu-Arg-Pro-Gly-NH2] |
| 2.04 | CCCC[C@@H](C(=O)N[C@@H](CCCNC(=N)N)C(=O)N1CCC[C@H]1C(=O)NCC)N1CC[C@@]2(CCCN2C(=O)[C@H](Cc2ccc(O)cc2)NC(=O)[C@H](CO)NC(=O)[C@H](Cc2c[nH]c3ccccc23)NC(=O)[C@H](Cc2c[nH]cn2)NC(=O)[C@@H]2CCC(=O)N2)C1=O [Example 18, pGlu-His-Trp-Ser-Tyr-SPL-Nle-Arg-Pro-NEt] |
| 0.55 | CCNC(=O)[C@@H]1CCCN1C(=O)[C@H](CCCNC(=N)N)NC(=O)[C@H](CC(C)(C)C)N1CC[C@@]2(CCCN2C(=O)[C@H](Cc2ccc(O)cc2)NC(=O)[C@H](CO)NC(=O)[C@H](Cc2c[nH]c3ccccc23)NC(=O)[C@H](Cc2c[nH]cn2)NC(=O)[C@@H]2CCC(=O)N2)C1=O [Example 16, pGlu-His-Trp-Ser-Tyr-SPL-Npg-Arg-Pro-NEt] |
| 0.427 | CCNC(=O)[C@@H]1CCCN1C(=O)[C@H](CCCNC(=N)N)NC(=O)[C@H](CC(C)C)N1CC[C@@]2(CCCN2C(=O)[C@H](Cc2ccc(O)cc2)NC(=O)[C@H](CO)NC(=O)[C@H](Cc2cccc3ccccc23)NC(=O)[C@H](Cc2c[nH]cn2)NC(=O)[C@@H]2CCC(=O)N2)C1=O [Example 11, pGlu-His-INal-Ser-Tyr-SPL-Leu-Arg-Pro-NEt] |

Source: patent US6153587A, “Conformationally constrained LH-RH analogues, their uses and pharmaceutical compositions containing them” (Laboratoire THERAMEX, priority 1996, dated 2000)
